# Experiments:
# VERPE [1] = assay: Pre-emergence herbicidal action against VERPE; format: in vivo, Veronica persica
# Outline: (§1)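 Herbicidal effect was assessed 3 weeks after treatment by visual comparison with untreated controls, 100% denoting dead plants. Aqueous WP or EC preparations had been applied at 600 to 800 l/ha with 0.2% wetting agent to the soil covering freshly sown seeds.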
# VIOTR [2] = assay: Post-emergence herbicidal action against VIOTR; format: in vivo, Viola tricolor
# Outline: (§2)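 Herbicidal effect was scored visually in percent after about 3 weeks in the greenhouse. Plants had been raised in sandy loam and treated post-emergence at the one-leaf stage with formulated compound at 600 to 800 l/ha water plus 0.2% wetting agent.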
# AMARE [3] = assay: Pre-emergence herbicidal action against AMARE; format: in vivo, Amaranthus retroflexus
# Outline: as §1
# ALOMY [4] = assay: Pre-emergence herbicidal action against ALOMY; format: in vivo, Alopecurus myosuroides; conditions: pre-emergence
# Outline: as §1
# SETVI [5] = assay: Pre-emergence herbicidal action against SETVI; format: in vivo, Setaria viridis
# Outline: as §1
# ECHCG [6] = assay: Pre-emergence herbicidal action against ECHCG; format: in vivo, Echinochloa crus-galli
# Outline: as §1
# VIOTR [7] = assay: Pre-emergence herbicidal action against VIOTR; format: in vivo, Viola tricolor
# Outline: as §1
# HORMU [8] = assay: Post-emergence herbicidal action against HORMU; format: in vivo, Hordeum murinum
# Outline: as §2
# CYPES [9] = assay: Post-emergence herbicidal action against CYPES; format: in vivo, Cyperus esculentus; conditions: 80 g/ha, visual assessment about 3 weeks after treatment, 100% = plants have died, 0% = like control plants
# Description: Seeds of monocotyledonous and dicotyledonous weed and crop plants are laid out in sandy loam soil in wood-fiber pots, covered with soil and cultivated in a greenhouse under good growth conditions. 2 to 3 weeks after sowing, the test plants are treated at the one-leaf stage. The compounds of the invention, formulated in the form of wettable powders (WP) or as emulsion concentrates (EC), are then sprayed onto the green parts of the plants in the form of an aqueous suspension or emulsion at a water application rate equivalent to 600 to 800 l/ha, with addition of 0.2% wetting agent. After the test plants have been left to stand in the greenhouse under optimal growth conditions for about 3 weeks, the action of the preparations is assessed visually in comparison to untreated controls (herbicidal action in percent (%): 100% activity=the plants have died, 0% activity=like control plants). […] The tables below illustrate, in an illustrative manner, the post-emergence herbicidal action of the compounds of the invention, the herbicidal activity being stated in percent.
# AMARE [10] = assay: Post-emergence herbicidal action against AMARE; format: in vivo, Amaranthus retroflexus; conditions: visual assessment about 3 weeks after treatment, 100% = plants have died, 0% = like control plants
# Outline: as §2
# VERPE [11] = assay: Post-emergence herbicidal action against VERPE; format: in vivo, Veronica persica
# Outline: as §2
# ALOMY [12] = assay: Post-emergence herbicidal action against ALOMY; format: in vivo, Alopecurus myosuroides; conditions: visual assessment about 3 weeks after treatment vs untreated controls
# Outline: as §2
# SETVI [13] = assay: Post-emergence herbicidal action against SETVI; format: in vivo, Setaria viridis
# Outline: as §2
# AVEFA [14] = assay: Pre-emergence herbicidal action against AVEFA; format: in vivo, Avena fatua; conditions: Avena fatua, pre-emergence, 504 h; 320 g/ha; scored visually after 3 weeks, 100% = plants have died, 0% = like control plants
# Outline: as §1
# AVEFA [15] = assay: Post-emergence herbicidal action against AVEFA; format: in vivo, Avena fatua; conditions: visual assessment about 3 weeks after treatment, 100% = plants have died, 0% = like control plants
# Outline: as §2
# HORMU [16] = assay: Pre-emergence herbicidal action against HORMU; format: in vivo, Hordeum murinum; conditions: Hordeum murinum, 504 h; 320 g/ha, pre-emergence
# Outline: as §1
# ECHCG [17] = assay: Post-emergence herbicidal action against ECHCG; format: in vivo, Echinochloa crus-galli
# Outline: as §2
# MATIN [18] = assay: Pre-emergence herbicidal action against MATIN; format: in vivo, Matricaria inodora
# Outline: as §1
# STEME [19] = assay: Pre-emergence herbicidal action against STEME; format: in vivo, Stellaria media
# Outline: as §1
# STEME [20] = assay: Post-emergence herbicidal action against STEME; format: in vivo, Stellaria media
# Outline: as §2
# ABUTH [21] = assay: Post-emergence herbicidal action against ABUTH; format: in vivo, Abutilon theophrasti; conditions: visual assessment about 3 weeks after treatment vs untreated controls
# Outline: as §2
# ABUTH [22] = assay: Pre-emergence herbicidal action against ABUTH; format: in vivo, Abutilon theophrasti
# Outline: as §1
# CYPES [23] = assay: Pre-emergence herbicidal action against CYPES; format: in vivo; conditions: Cyperus esculentus, 504 h
# Source text: Seeds of monocotyledonous and dicotyledonous weed plants and crop plants are laid out in sandy loam soil in wood-fiber pots and covered with soil. The compounds of the invention, formulated in the form of wettable powders (WP) or as emulsion concentrates (EC), are then applied to the surface of the covering soil in the form of an aqueous suspension or emulsion at a water application rate equivalent to 600 to 800 l/ha, with addition of 0.2% wetting agent. After the treatment, the pots are placed in a greenhouse and kept under good growth conditions for the trial plants. The damage to the test plants is scored visually after a test period of 3 weeks by comparison with untreated controls (herbicidal activity in percent (%): 100% activity=the plants have died, 0% activity=like control plants). […] The tables below illustrate, in an illustrative manner, the post-emergence herbicidal action of the compounds of the invention, the herbicidal activity being stated in percent.
# POLCO = assay: Post-emergence herbicidal action against POLCO; format: in vivo, Polygonum convolvulus; conditions: dosage 20 g/ha
# Outline: as §2
# PHBPU = assay: Post-emergence herbicidal action against PHBPU; format: in vivo, Pharbitis purpurea; conditions: dosage 20 g/ha
# Outline: as §2
# DIGSA [24] = assay: Post-emergence herbicidal action against DIGSA; format: in vivo, Digitaria sanguinalis
# Outline: as §2
# LOLRI = assay: Post-emergence herbicidal action against LOLRI; format: in vivo, Lolium rigidum; conditions: dosage 20 g/ha
# Outline: as §2
# MATIN [25] = assay: Post-emergence herbicidal action against MATIN; format: in vivo, Matricaria inodora
# Outline: as §2
# DIGSA [26] = assay: Pre-emergence herbicidal action against DIGSA; format: in vivo, Digitaria sanguinalis
# Outline: as §1
# [27] = 80 g/ha, scored visually after 3 weeks vs untreated controls (100% = plants have died, 0% = like control plants)
compound,measurement,setting,value
Cc1nnc(NC(=O)c2ccc(C(F)(F)F)c(C(N)=O)c2Cl)o1 [Example 6-253],pest or weed control at 320 g/ha,"VERPE [1]; Veronica persica, 504 h, dosage 320 g/ha",100%
same,pest or weed control at 20 g/ha,"VIOTR [2]; Viola tricolor, 504 h, 20 g/ha",80%
same,pest or weed control at 80 g/ha,"VIOTR [2]; Viola tricolor, 504 h, 80 g/ha",80%
same,pest or weed control at 80 g/ha,"AMARE [3]; Amaranthus retroflexus, 504 h, 80 g/ha, scored visually after 3 weeks vs untreated controls, 100% = plants have died, 0% = like control plants",80%
same,pest or weed control at 320 g/ha,"AMARE [3]; Amaranthus retroflexus, 504 h, 320 g/ha, scored visually after 3 weeks, 100% = plants have died, 0% = like control plants",90%
same,pest or weed control at 320 g/ha,"ALOMY [4]; Alopecurus myosuroides, 504 h, 320 g/ha, scored visually after 3 weeks, 100% = plants have died, 0% = like control plants",90%
same,pest or weed control at 320 g/ha,"SETVI [5]; Setaria viridis, 504 h, dosage 320 g/ha",100%
same,pest or weed control at 320 g/ha,"ECHCG [6]; Echinochloa crus-galli, 504 h, 320 g/ha",100%
same,pest or weed control at 320 g/ha,"VIOTR [7]; Viola tricolor, 504 h, dosage 320 g/ha",100%
same,pest or weed control at 80 g/ha,"HORMU [8]; Hordeum murinum, 504 h, dosage 80 g/ha",90%
same,Post-emergence action at 80 g/ha against CYPES in %,CYPES [9],80%
same,pest or weed control at 80 g/ha,"AMARE [10]; Amaranthus retroflexus, 504 h, 80 g/ha",100%
same,pest or weed control at 20 g/ha,"VERPE [11]; Veronica persica, 504 h, 20 g/ha",80%
same,pest or weed control at 80 g/ha,"VERPE [11]; Veronica persica, 504 h, 80 g/ha",90%
same,pest or weed control at 80 g/ha,"ALOMY [12]; Alopecurus myosuroides, 504 h, dosage 80 g/ha",80%
same,pest or weed control at 20 g/ha,"SETVI [13]; Setaria viridis, 504 h, dosage 20 g/ha",90%
same,pest or weed control at 80 g/ha,"SETVI [13]; Setaria viridis, 504 h, dosage 80 g/ha",100%
same,pest or weed control at 320 g/ha,AVEFA [14],90%
same,pest or weed control at 80 g/ha,"AVEFA [15]; Avena fatua, 504 h, 80 g/ha",80%
same,pest or weed control at 320 g/ha,HORMU [16],90%
same,pest or weed control at 80 g/ha,"ECHCG [17]; Echinochloa crus-galli, 504 h, dosage 80 g/ha",90%
same,pest or weed control at 320 g/ha,"MATIN [18]; Tripleurospermum inodorum, 504 h, dosage 320 g/ha",100%
same,pest or weed control at 320 g/ha,"STEME [19]; Stellaria media, 504 h, dosage 320 g/ha",100%
same,pest or weed control at 80 g/ha,"STEME [20]; Stellaria media, 504 h, 80 g/ha",90%
same,pest or weed control at 5 g/ha,"ABUTH [21]; Abutilon theophrasti, 504 h, dosage 5 g/ha",100%
same,pest or weed control at 20 g/ha,"ABUTH [21]; Abutilon theophrasti, 504 h, dosage 20 g/ha",100%
same,pest or weed control at 80 g/ha,"ABUTH [21]; Abutilon theophrasti, 504 h, dosage 80 g/ha",100%
same,pest or weed control at 80 g/ha,"ABUTH [22]; Abutilon theophrasti, 504 h, 80 g/ha, scored visually after 3 weeks vs untreated controls (100% = plants have died, 0% = like control plants)",90%
same,pest or weed control at 320 g/ha,"ABUTH [22]; Abutilon theophrasti, 504 h, Dosage: 320 g/ha, scored visually after 3 weeks, 100% = plants have died, 0% = like control plants",100%
same,pest or weed control at 20 g/ha,"CYPES [23]; 20 g/ha, scored visually after 3 weeks, 100% = plants have died, 0% = like control plants",80%
same,pest or weed control at 80 g/ha,"CYPES [23]; 80 g/ha, scored visually after 3 weeks, 100% = plants have died, 0% = like control plants",90%
same,pest or weed control at 320 g/ha,CYPES [23]; 320 g/ha,100%
CNC(=O)c1c(C(F)F)ccc(C(=O)Nc2nnco2)c1Cl [Example 5-122],Pre-emergence action against VERPE in %,VERPE [1]; dosage 80 g/ha,100%
same,Post-emergence action against VIOTR in %,VIOTR [2]; 5 g/ha,90%
same,Post-emergence action against VIOTR in %,VIOTR [2]; 20 g/ha,90%
same,Pre-emergence action against AMARE in %,"AMARE [3]; 20 g/ha, scored visually after 3 weeks vs untreated controls, 100% = plants have died, 0% = like control plants",80%
same,Pre-emergence action against AMARE in %,AMARE [3]; [27],100%
same,Pre-emergence action against ALOMY (herbicidal activity),ALOMY [4]; [27],80%
same,Pre-emergence action against SETVI in %,SETVI [5]; dosage 80 g/ha,100%
same,Pre-emergence action against ECHCG in %,ECHCG [6]; 20 g/ha,80%
same,Pre-emergence action against ECHCG in %,ECHCG [6]; 80 g/ha,100%
same,Post-emergence action against POLCO in %,POLCO,80%
same,Pre-emergence action against VIOTR in %,VIOTR [7]; dosage 20 g/ha,80%
same,Pre-emergence action against VIOTR in %,VIOTR [7]; dosage 80 g/ha,100%
same,Post-emergence action against HORMU in %,HORMU [8]; dosage 20 g/ha,80%
same,Post-emergence action at 20 g/ha against AMARE in %,AMARE [10]; 20 g/ha,90%
same,Post-emergence action against PHBPU in %,PHBPU,90%
same,Post-emergence action against VERPE in %,VERPE [11]; 20 g/ha,80%
same,Post-emergence action against ALOMY in %,ALOMY [12]; dosage 20 g/ha,80%
same,Post-emergence action against SETVI in %,SETVI [13]; dosage 5 g/ha,80%
same,Post-emergence action against SETVI in %,SETVI [13]; dosage 20 g/ha,90%
same,Post-emergence action against DIGSA in %,DIGSA [24]; 5 g/ha,90%
same,Post-emergence action against DIGSA,DIGSA [24]; 20 g/ha,90%
same,Post-emergence action against LOLRI in %,LOLRI,80%
same,Post-emergence action at 20 g/ha against AVEFA in %,AVEFA [15]; 20 g/ha,80%
same,Post-emergence action against MATIN in %,MATIN [25]; dosage 5 g/ha,80%
same,Post-emergence action against MATIN in %,MATIN [25]; dosage 20 g/ha,80%
same,Post-emergence action against ECHCG in %,ECHCG [17]; dosage 5 g/ha,90%
same,Post-emergence action against ECHCG in %,ECHCG [17]; dosage 20 g/ha,90%
same,Pre-emergence action against MATIN in %,MATIN [18]; dosage 80 g/ha,90%
same,Pre-emergence action against STEME in %,STEME [19]; dosage 20 g/ha,90%
same,Pre-emergence action against STEME in %,STEME [19]; dosage 80 g/ha,90%
same,Post-emergence action against STEME in %,STEME [20]; 20 g/ha,100%
same,Post-emergence action against STEME in %,STEME [20]; dosage 5 g/ha,90%
same,Post-emergence action against ABUTH in %,ABUTH [21]; dosage 5 g/ha,80%
same,Post-emergence action against ABUTH in %,ABUTH [21]; dosage 20 g/ha,90%
same,Pre-emergence action against ABUTH (herbicidal activity),ABUTH [22]; [27],100%
same,Pre-emergence action against ABUTH (herbicidal activity in percent),"ABUTH [22]; dosage 20 g/ha, scored visually after 3 weeks vs untreated controls, 100% = plants have died, 0% = like control plants",90%
same,Pre-emergence action against DIGSA in %,DIGSA [26]; dosage 20 g/ha,100%
same,Pre-emergence action against DIGSA in %,DIGSA [26]; dosage 80 g/ha,100%
